# Data: ChEMBL document CHEMBL1269006, “Synthetic human serum albumin Sudlow I binding site mimics” (J Med Chem, 2010)
# Experiment: Displacement of [3H](S)-warfarin from methacrylic acid-ethylene dimethacrylate copolymer
Structure (SMILES),EC50,logEC50
CC(=O)CC(c1ccccc1)c1c(O)c2ccccc2oc1=O (stereo unspecified) [WARFARIN],89.6 µM,-4.05
CC(=O)CC(c1ccc(Cl)cc1)c1c(O)c2ccccc2oc1=O (stereo unspecified) [COUMACHLOR],165 µM,-3.78
O=c1ccc2ccccc2o1 [COUMARIN],1290 µM,-2.89
